Source: US7883687B2, “15O-labeled monosaccharide and producing method thereof” (Astellas Pharma Inc., priority 2004, dated 2011)

Test: PET imaging in rat (Planar Positron Imaging System)
Details: injected from tail vein, integrated PET image from 15 min to 30 min after administration (FIG. 4A, 4B)
Description: Hydroxylation of 2,6-dideoxy-6-iodo-D-glucose and 6-iodo-6-deoxy-D-glucose was performed in the glass filter reactor as shown in FIG. 1. Sep-Pak cartridges were purchased from Waters. The cyclotron is OSCAR-12 (NKK/Oxford). The target gas consisted of 1.5% O2 in ^15N2. PET scans were obtained on Planar Positron Imaging System (Hamamatsu Photonics K.K.).
A solution of 2,6-dideoxy-6-iodo-D-glucose (274 mg, 1.0 mmol), tributyltin hydride (807 μl, 3.0 mmol) and AIBN (4.0 mg, 0.025 mmol) in PhCF3 (20.0 ml)/C10F18 (4.5 ml)/2-BuOH (3.0 ml) was placed in the reactor, which was on the automated synthetic apparatus (FIG. 3). Proton bombardment (beam current 50 μA) on target gas started (N2/O2=98.5/1.5, target gas pressure=6 kg/cm^2). The beginning of the bombardment was defined as 0 sec for convenience. Cold gas (N2/O2=[…], 180 ml/min) was provided and heating with temperature-controlled air (80° C.) started simultaneously at 2 min 40 sec. At 4.0 min, the target gas was evacuated from the targeting area in the cyclotron system (20 ml/min). The target gas was mixed with cold N2/O2 gas (target gas/N2/O2=20/177/3, 200 ml/min), and the resulting gas was then supplied to the reaction vessel. […] At 5 min 20 sec, the bombardment stopped. However, evacuation of the target gas continued. Triphenylphosphine (262 mg, 1.0 mmol in 1.5 ml of PhCF3) was added at 6.0 min. […]

Structure (SMILES): O=CCC(O)C(O)C(O)C[15OH] [[^15O]2-DG, ^15[O]2-deoxy-D-glucose]
- accumulation of tracer in integrated PET image: accumulation of [^15O]2-DG in heart, kidney and bladder
